Test [1] concerns the target T1, mu opioid receptor (MOR) (Homo sapiens, UniProt P35372). The test is described as follows: MOR cAMP agonist assay.
In test [2] the target is T2, kappa opioid receptor (KOR) (Homo sapiens, UniProt P41145).
T2 construct: host or cells: CHO-K1
The test is described as follows: cell-based. The following applies: after activation with dynorphin B. The source says: KOR cAMP Antagonist Assay

For test [3], the target named is T1, mu opioid receptor (MOR). Briefly: MOR GTPγS agonist assay. The class given is biochemical. Details: host or cells: CHO-K1. The note with it: membranes of CHO cells over-expressing MOR; SPA beads; read-out: MOR GTPγS EC50. The source says:
Membranes obtained from the stable cell lines over-expressing MOR were subjected to GTPγS assay using SPA beads (Perkin Elmer, Cat #RPNQ0001).

The mark [4] stands for this setting: kOR cAMP IC50, CHO-K1 cells expressing kOR.
The mark [5] stands for this setting: CHO-K1 cells expressing kOR, read-out: kOR cAMP IC50.

The structures appear in SMILES notation. Where two headings read alike, the source gives them in different places. Where only a bound is given, the exact number is not on record here.

T2 sequence (P41145 whole entry): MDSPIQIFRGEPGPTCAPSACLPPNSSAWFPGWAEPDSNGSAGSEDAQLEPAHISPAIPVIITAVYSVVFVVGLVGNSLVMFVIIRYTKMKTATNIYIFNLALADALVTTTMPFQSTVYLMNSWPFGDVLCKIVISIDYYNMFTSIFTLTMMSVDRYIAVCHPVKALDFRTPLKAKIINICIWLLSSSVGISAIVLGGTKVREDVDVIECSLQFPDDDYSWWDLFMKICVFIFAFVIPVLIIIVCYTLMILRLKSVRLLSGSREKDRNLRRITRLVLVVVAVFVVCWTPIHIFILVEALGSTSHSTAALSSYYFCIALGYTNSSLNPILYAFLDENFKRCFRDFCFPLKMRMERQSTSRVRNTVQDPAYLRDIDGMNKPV
T1 sequence (P35372 whole entry): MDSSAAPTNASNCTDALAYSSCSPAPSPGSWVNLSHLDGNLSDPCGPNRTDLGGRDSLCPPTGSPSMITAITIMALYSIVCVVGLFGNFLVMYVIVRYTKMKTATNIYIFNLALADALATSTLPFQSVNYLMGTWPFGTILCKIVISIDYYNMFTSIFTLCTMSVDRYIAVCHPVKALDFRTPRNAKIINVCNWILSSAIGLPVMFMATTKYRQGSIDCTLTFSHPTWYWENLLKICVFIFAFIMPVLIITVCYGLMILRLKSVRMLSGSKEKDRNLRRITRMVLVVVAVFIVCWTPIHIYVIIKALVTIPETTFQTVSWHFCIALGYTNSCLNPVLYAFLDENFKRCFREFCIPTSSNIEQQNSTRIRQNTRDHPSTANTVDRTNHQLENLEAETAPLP

The EC50 is the concentration giving half of the maximal effect. By IC50 is commonly meant the midpoint of a concentration-inhibition curve. Turning to `C[C@H](NC(=O)NC[C@H](Cc1ccc(C(N)=O)cc1)N(C)C)c1ccccc1` [Compound A-1, 4-((S)-2-(dimethylamino)-3-(3-((S)-1-phenylethyl)ureido)propyl) benzamide], the EC50 in test [1] was above 1000 nM. For the same compound, the IC50 in test [2] (setting [4]) lay in the range of 100 to 1000 nM.
As for `C[C@H](OC(=O)NC[C@@H](N)Cc1ccc(C(N)=O)cc1)c1ccccc1` [Compound A-2, (S)-1-phenylethyl ((S)-2-amino-3-(4-carbamoylphenyl)propyl)carbamate], the EC50 in test [1] is above 1000 nM. Further, the IC50 in test [2] (setting [5]) is above 1000 nM.
As to `C[C@H](OC(=O)NC[C@H](Cc1ccc(C(N)=O)cc1)N(C)C)c1ccccc1` [Compound A-3, (S)-1-phenylethyl ((S)-3-(4-carbamoylphenyl)-2-(dimethylamino)propyl) carbamate], the EC50 in test [1] was below 100 nM. The IC50 in test [2] (setting [4]) was above 1000 nM.
On the same counts, the results for `CN(C)[C@H](CNC(=O)N[C@H](c1ccccc1)C1CC1)Cc1ccc(C(N)=O)cc1` [Compound A-4, 4-((S)-3-(3-((S)-cyclopropyl(phenyl)methyl)ureido)-2-(dimethylamino)propyl)benzamide] are below 100 nM and below 100 nM.
On the same counts, the results for `Cc1cc(C(N)=O)cc(C)c1C[C@H](N)CNC(=O)O[C@@H](C)c1ccccc1` [Compound A-5, (S)-1-phenylethyl ((S)-2-amino-3-(4-carbamoyl-2,6-dimethylphenyl)propyl)carbamate] are 100 to 1000 nM and below 100 nM.
In test [1], `Cc1cc(C(N)=O)cc(C)c1C[C@H](N)CNC(=O)N[C@H](c1ccccc1)C1CC1` [Compound A-6, 4-((S)-2-amino-3-(3-((S)-cyclopropyl(phenyl)methyl)ureido)propyl)-3,5-dimethylbenzamide] yielded an EC50 of 100 to 1000 nM. The same compound yielded a 50% inhibitory concentration (IC50) in test [2] (setting [4]) of 100 to 1000 nM.
Take `Cc1cc(C(N)=O)cc(C)c1C[C@@H](CNC(=O)O[C@@H](C)c1ccccc1)N(C)C` [Compound A-7, (S)-1-phenylethyl ((S)-3-(4-carbamoyl-2,6-dimethylphenyl)-2-(dimethylamino)propyl)carbamate]: the half-maximal effective concentration (EC50) in test [1] is above 1000 nM. The same compound registered a half-maximal inhibitory concentration (IC50) in test [2] (setting [4]) of 100 to 1000 nM.
In turn, `Cc1cc(C(N)=O)cc(C)c1C[C@@H](CNC(=O)C[C@H](C)c1ccccc1)N(C)C` [Compound A-8, 4-((S)-2-(dimethylamino)-3-((S)-3-phenylbutanamido)propyl)-3,5-dimethylbenzamide] gave a half-maximal effective concentration (EC50) in test [1] above 1000 nM. Besides, the IC50 in test [2] (setting [5]) was above 1000 nM.
`Cc1cc(C(N)=O)cc(C)c1C[C@@H](CNC(=O)N[C@H](c1ccccc1)C1CC1)N(C)C` [Compound A-9, 4-((S)-3-(3-((S)-cyclopropyl(phenyl)methyl)ureido)-2-(dimethylamino)propyl)-3,5-dimethylbenzamide] gave a concentration giving a half-maximal response (EC50) in test [1] above 1000 nM. Further, in test [2] (setting [5]), the IC50 is above 1000 nM.
In test [2] (setting [4]), `C[C@H](CC(=O)NC[C@H](Cc1ccc(C(N)=O)cc1)N(C)C)c1ccccc1` [Compound A-10, 4-((S)-2-(dimethylamino)-3-((R)-3-phenylbutanamido)propyl)benzamide] yielded an IC50 of 100 to 1000 nM.
Regarding `Cc1cc(C(N)=O)cc(C)c1C[C@@H](CNC(=O)C[C@@H](C)c1ccccc1)N(C)C` [Compound A-11, 4-((S)-2-(dimethylamino)-3-((R)-3-phenylbutanamido)propyl)-3,5-dimethylbenzamide], the concentration for a half-maximal effect (EC50) in test [1] was above 1000 nM. In test [2] (setting [4]), the IC50 lay within 100 to 1000 nM.
On the same counts, the results for `CN(C)[C@H](CNC(=O)[C@@H]1C[C@@]1(C)c1ccccc1)Cc1ccc(O)cc1Cl` [Compound B-1, (1R,2R)—N—((S)-3-(2-chloro-4-hydroxyphenyl)-2-(dimethylamino)propyl)-2-methyl-2-phenylcyclopropane-1-carboxamide] are below 100 nM and below 100 nM.
For `CNC(=O)c1ccc(C[C@@H](CNC(=O)[C@@H]2C[C@@]2(C)c2ccccc2)N(C)C)cc1F` [Compound B-2, 4-((S)-2-(dimethylamino)-3-((1R,2R)-2-methyl-2-phenylcyclopropane-1-carboxamido)propyl)-2-fluoro-N-methylbenzamide], in that order: below 100 nM and above 1000 nM.
For `CN(C)[C@H](CNC(=O)[C@@H]1C[C@@]1(C)c1ccccc1)Cc1ccc(C(N)=O)cc1` [Compound B-3, 4-((S)-2-(dimethylamino)-3-((1R,2R)-2-methyl-2-phenylcyclopropane-1-carboxamido)propyl)benzamide], in that order: below 100 nM and above 1000 nM.
As for `CN(C)[C@H](CNC(=O)[C@H]1C[C@@]1(C)c1ccccc1)Cc1ccc(C(N)=O)cc1` [Compound B-4, 4-((S)-2-(dimethylamino)-3-((1S,2R)-2-methyl-2-phenylcyclopropane-1-carboxamido)propyl)benzamide], the EC50 in test [1] was below 100 nM. The compound further showed an IC50 in test [2] (setting [4]) of 100 to 1000 nM.
On the same counts, the results for `CN(C)[C@H](CNC(=O)[C@@H]1C[C@]1(C)c1ccccc1)Cc1ccc(C(N)=O)cc1` [Compound B-5, 4-((S)-2-(dimethylamino)-3-((1R,2S)-2-methyl-2-phenylcyclopropane-1-carboxamido)propyl)benzamide] are below 100 nM and below 100 nM.
For `CN(C)[C@H](CNC(=O)[C@@H]1C[C@@]1(C)c1ccccc1)Cc1ccc(C(N)=O)cc1Cl` [Compound B-6, 3-chloro-4-((S)-2-(dimethylamino)-3-((1R,2R)-2-methyl-2-phenylcyclopropane-1-carboxamido)propyl)benzamide], in that order: below 100 nM and 100 to 1000 nM.
For the compound `CN(C)[C@H](CNC(=O)[C@H]1C[C@@H]1c1ccccc1)Cc1ccc(O)cc1` [Compound B-18, (1S,2S)—N—((S)-2-(dimethylamino)-3-(4-hydroxyphenyl)propyl)-2-phenylcyclopropane-1-carboxamide], the half-inhibitory concentration (IC50) in test [2] (setting [4]) is 100 to 1000 nM.
On the same count and under the same terms, in the case of `CN(C)[C@H](CNC(=O)[C@@H]1C[C@]1(C)c1ccccc1)Cc1cc(F)c(O)c(Cl)c1` [Compound B-24, (1R,2S)—N—((S)-3-(3-chloro-5-fluoro-4-hydroxyphenyl)-2-(dimethylamino)propyl)-2-methyl-2-phenylcyclopropane-1-carboxamide] it was 100 to 1000 nM.
`CN(CC(F)(F)F)[C@H](CNC(=O)[C@@H]1C[C@]1(C)c1ccccc1)Cc1ccc(C(=O)NC2CC2)c(F)c1` [Compound B-29, N-cyclopropyl-2-fluoro-4-((S)-2-(methyl(2,2,2-trifluoroethyl)amino)-3-((1R,2S)-2-methyl-2-phenylcyclopropane-1-carboxamido)propyl)benzamide] gave an EC50 in test [1] below 100 nM.
In test [1], `CN(CC1CC1)[C@H](CNC(=O)[C@@H]1C[C@]1(C)c1ccccc1)Cc1ccc2[nH]c(=O)oc2c1` [Compound B-32, (1R,2S)—N—((S)-2-((cyclopropylmethyl)(methyl)amino)-3-(2-oxo-2,3-dihydrobenzo[d]oxazol-6-yl)propyl)-2-methyl-2-phenylcyclopropane-1-carboxamide] returned an EC50 of 100 to 1000 nM.
On to `CCNC(=O)c1ccc(C[C@@H](CNC(=O)[C@@H]2C[C@]2(C)c2ccccc2)N(C)C)cc1F` [Compound B-34, 4-((S)-2-(dimethylamino)-3-((1R,2S)-2-methyl-2-phenylcyclopropane-1-carboxamido)propyl)-N-ethyl-2-fluorobenzamide], for which the EC50 in test [1] was below 100 nM.
`CN(C)[C@H](CNC(=O)[C@@H]1C[C@@]1(C)c1ccccc1)Cc1ccc(O)cc1F` [Compound B-44, (1R,2R)—N—((S)-2-(dimethylamino)-3-(2-fluoro-4-hydroxyphenyl)propyl)-2-methyl-2-phenylcyclopropane-1-carboxamide]: the IC50 in test [2] (setting [4]) was above 1000 nM.
On to `CN1Cc2cc(O)ccc2C[C@H]1CNC(=O)[C@@H]1C[C@]1(C)c1ccccc1` [Compound B-50, (1R,2S)—N—(((S)-7-hydroxy-2-methyl-1,2,3,4-tetrahydroisoquinolin-3-yl)methyl)-2-methyl-2-phenylcyclopropane-1-carboxamide], for which, in test [1], the EC50 is below 100 nM.
For `CN1Cc2cc(O)ccc2C[C@H]1CNC(=O)[C@@H]1C[C@@]1(C)c1ccccc1` [Compound B-51, (1R,2R)—N—(((S)-7-hydroxy-2-methyl-1,2,3,4-tetrahydroisoquinolin-3-yl)methyl)-2-methyl-2-phenylcyclopropane-1-carboxamide], the 50% effective concentration (EC50) in test [1] is below 100 nM.
Same read-out and setting: in the case of `CN(C)[C@H](CNC(=O)[C@@H]1C[C@@]1(C)c1ccccc1)Cc1cc2cn[nH]c2cc1Cl` [Compound B-52, (1R,2R)—N—((S)-3-(6-chloro-2H-indazol-5-yl)-2-(dimethylamino)propyl)-2-methyl-2-phenylcyclopropane-1-carboxamide] it was below 100 nM; in that of `CN(C)[C@H](CNC(=O)[C@@H]1C[C@@]1(C)c1ccccc1)Cc1ccc2[nH]c(=O)oc2c1` [Compound B-53, (1R,2R)—N—((S)-2-(dimethylamino)-3-(2-oxo-2,3-dihydrobenzo[d]oxazol-6-yl)propyl)-2-methyl-2-phenylcyclopropane-1-carboxamide], below 100 nM; in that of `CN(C)[C@H](CNC(=O)[C@@H]1C[C@@]1(C)c1ccccc1)Cc1ccc(O)c(Cl)c1` [Compound B-59, (1R,2R)—N—((S)-3-(3-chloro-4-hydroxyphenyl)-2-(dimethylamino)propyl)-2-methyl-2-phenylcyclopropane-1-carboxamide], below 100 nM.
`CNC(=O)c1cc(C)c(C[C@@H](CNC(=O)c2ccccc2)N(C)C)c(C)c1` [Compound C-45] had an IC50 in test [2] (setting [4]) above 1000 nM. For the same compound, the EC50 in test [3] was below 100 nM.
For the compound `Cc1ccc(C(=O)NC[C@H](Cc2ccc(C(N)=O)cc2)N(C)C)c(C)c1` [Compound C-67, (S)—N-(3-(4-carbamoylphenyl)-2-(dimethylamino)propyl)-2,4-dimethylbenzamide], the IC50 in test [2] (setting [4]) was above 1000 nM. Further, the concentration for a half-maximal effect (EC50) in test [3] is below 100 nM.

These data come from patent US20210147343A1 (priority 2018, published 2021).
